The values that follow come from US20240368120A1 (Terns Pharmaceuticals, Inc., priority 2023, published 2024).

Where only a bound is given, the exact number is not on record here.

The assay has as its target T1, human GLP-1R receptor (Homo sapiens, UniProt P43220).
T1 construct: expressed in transfected cells
The assay is described as follows: GLP-1R low expression cell assay (cAMP TR-FRET, CHO-K1_hGLP-1Rlow_clone10 cells). The class given is cell-based. The following applies: for EC50: cAMP TR-FRET, 30 min at 25° C.; for Emax: maximum activation relative to control GLP-1 peptide agonist. The gist of the method: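 Readout is cAMP TR-FRET after 30 min compound stimulation at 25 °C of a low-GLP-1R-expressing CHO-K1 clone (1,000 cells/well), with 10-point 3-fold serial dilutions. Percent activation versus a control GLP-1 peptide, from duplicates, was Hill-fitted to give EC50.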
In general terms: Time-resolved FRET reads energy transfer from a long-lived donor to a nearby acceptor.

T1 sequence (P43220 24-463): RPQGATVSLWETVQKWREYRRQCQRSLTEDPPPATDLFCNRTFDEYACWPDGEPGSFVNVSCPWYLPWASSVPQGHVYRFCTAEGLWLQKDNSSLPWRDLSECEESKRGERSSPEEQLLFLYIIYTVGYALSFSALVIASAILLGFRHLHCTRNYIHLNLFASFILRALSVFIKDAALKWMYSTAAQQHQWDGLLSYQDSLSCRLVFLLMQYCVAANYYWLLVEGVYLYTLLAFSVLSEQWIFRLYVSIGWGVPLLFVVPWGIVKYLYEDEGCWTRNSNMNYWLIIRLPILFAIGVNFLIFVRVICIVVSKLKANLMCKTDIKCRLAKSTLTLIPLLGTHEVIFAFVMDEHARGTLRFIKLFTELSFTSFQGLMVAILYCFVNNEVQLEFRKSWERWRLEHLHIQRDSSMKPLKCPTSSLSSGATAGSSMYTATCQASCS

For orientation: EC50 means the concentration that produces a half-maximal response. Low readings indicate higher potency in that assay, high ones lower potency in that assay. As usually defined, the Emax is the maximal effect, on the per cent scale that the assay sets. With `Cn1c(CN2CCC(c3cccc(OCc4ccc(C#N)cc4F)n3)CC2)nc2c(OCCO)cc(C(=O)O)cc21` [Compound 291, 2-((4-(6-((4-Cyano-2-fluorobenzyl)oxy)pyridin-2-yl)piperidin-1-yl)methyl)-4-(2-hydroxyethoxy)-1-methyl-1H-benzo[d]imidazole-6-carboxylic acid], the concentration giving a half-maximal response (EC50) is < 10 nM and the maximum response (Emax) is > 85%.
The like results for `Cn1c(CN2CCC(c3cccc(OCc4ccc(Cl)cc4F)n3)CC2)nc2c(O)c(C(=O)O)ccc21` [Compound 345, 2-((4-(6-((4-Chloro-2-fluorobenzyl)oxy)pyridin-2-yl)piperidin-1-yl)methyl)-4-hydroxy-1-methyl-1H-benzo[d]imidazole-5-carboxylic acid] were, in that order, > 1000 nM and 50 to 85%.
Taken in the same sequence, the figures for `COc1cc(-c2nnn[nH]2)cc2c1nc(CN1CCC(c3cccc(OCc4ccc(Cl)cc4F)n3)CC1)n2C[C@@H]1CCO1` [Compound 279, (S)-2-((4-(6-((4-Chloro-2-fluorobenzyl)oxy)pyridin-2-yl)piperidin-1-yl)methyl)-4-methoxy-1-(oxetan-2-ylmethyl)-6-(1H-tetrazol-5-yl)-1H-benzo[d]imidazole] were < 10 nM and 50 to 85%.
Taken in the same sequence, the figures for `COc1cc(C(=O)O)cc2c1nc(CN1CCC(c3cccc4c3OC[C@@H](c3ccc(Cl)cc3F)O4)CC1)n2C` [Compound 271, (R)-2-((4-(2-(4-Chloro-2-fluorophenyl)-2,3-dihydrobenzo[b][1,4]dioxin-5-yl)piperidin-1-yl)methyl)-4-methoxy-1-methyl-1H-benzo[d]imidazole-6-carboxylic acid] were 100 to 1000 nM and 50 to 85%.
With `Cn1c(CN2CCC(c3cccc(OCc4ccc(Cl)cc4F)n3)CC2)nc2c(OC(F)F)cc(-c3nsc(=O)[nH]3)cc21` [Compound 370, 3-(2-((4-(6-((4-Chloro-2-fluorobenzyl)oxy)pyridin-2-yl)piperidin-1-yl)methyl)-4-(difluoromethoxy)-1-methyl-1H-benzo[d]imidazol-6-yl)-1,2,4-thiadiazol-5 (4H)-one], the 50% effective concentration (EC50) is 100 to 1000 nM and the Emax was > 85%.
For `[2H]C([2H])(C)Oc1cc(C(=O)O)cc2c1nc(CN1CCC(c3cccc(OCc4ccc(Cl)cc4F)c3)CC1)n2C` [Compound 284, 2-((4-(3-((4-Chloro-2-fluorobenzyl)oxy)phenyl)piperidin-1-yl)methyl)-4-(ethoxy-1,1-d2)-1-methyl-1H-benzo[d]imidazole-6-carboxylic acid], the EC50 lay within 10 to 100 nM and the maximum response (Emax) was > 85%.
The like results for `Cn1c(CN2CCC(c3cccc(OCc4ccc(Cl)cc4F)n3)CC2)nc2c(OCCO)cc(C(=O)O)cc21` [Compound 343, 2-((4-(6-((4-Chloro-2-fluorobenzyl)oxy)pyridin-2-yl)piperidin-1-yl)methyl)-4-(2-hydroxyethoxy)-1-methyl-1H-benzo[d]imidazole-6-carboxylic acid] were, in that order, < 10 nM and > 85%.
For `CN1C(=O)[C@@H](c2ccc(Cl)cc2F)Oc2c(C3CCN(Cc4nc5c(OC(F)F)cc(C(=O)O)cc5n4C)CC3)cccc21` [Compound 240, (R)-2-((4-(2-(4-chloro-2-fluorophenyl)-4-methyl-3-oxo-3,4-dihydro-2H-benzo[b][1,4]oxazin-8-yl)piperidin-1-yl)methyl)-4-(difluoromethoxy)-1-methyl-1H-benzo[d]imidazole-6-carboxylic acid], the EC50 is > 1000 nM and the maximum response (Emax) is < 25%.
Taken in the same sequence, the figures for `Cn1c(CN2CCC(c3cccc(OCc4ccc(Cl)cc4F)n3)CC2)nc2c(OCC(F)(F)F)cc(C(=O)O)cc21` [Compound 224, 2-((4-(6-((4-Chloro-2-fluorobenzyl)oxy)pyridin-2-yl)piperidin-1-yl)methyl)-1-methyl-4-(2,2,2-trifluoroethoxy)-1H-benzo[d]imidazole-6-carboxylic acid] were 10 to 100 nM and > 85%.
As for `Cn1c(CN2CCC(c3cccc(OCc4ccc(C#N)cc4F)n3)CC2)nc2c(C(C)(C)O)cc(C(=O)O)cc21` [Compound 126, 2-((4-(6-((4-cyano-2-fluorobenzyl)oxy)pyridin-2-yl)piperidin-1-yl)methyl)-4-(2-hydroxypropan-2-yl)-1-methyl-1H-benzo[d]imidazole-6-carboxylic acid], the EC50 is > 1000 nM and the maximal effect (Emax) was 50 to 85%.
In the case of `Cn1c(CN2CCC(c3cccc(OCc4ccc(Cl)cc4OC(F)F)n3)CC2)nc2c(OC(F)F)cc(C(=O)O)cc21` [Compound 246, 2-((4-(6-((4-Chloro-2-(difluoromethoxy)benzyl)oxy)pyridin-2-yl)piperidin-1-yl)methyl)-4-(difluoromethoxy)-1-methyl-1H-benzo[d]imidazole-6-carboxylic acid], the EC50 is < 10 nM and the Emax is > 85%.
The like results for `N#Cc1ccc(COc2cccc(C3CCN(Cc4nc5c(O)nc(C(=O)O)cc5n4C[C@@H]4CCO4)CC3)n2)c(F)c1` [Compound 143, (S)-2-((4-(6-((4-Cyano-2-fluorobenzyl)oxy)pyridin-2-yl)piperidin-1-yl)methyl)-4-hydroxy-1-(oxetan-2-ylmethyl)-1H-imidazo[4,5-c]pyridine-6-carboxylic acid] were, in that order, < 10 nM and > 85%.
Taken in the same sequence, the figures for `Cn1c(CN2CCC(c3cccc(OCc4ccc(C#N)cc4F)c3Cl)CC2)nc2c(OC(F)F)cc(C(=O)O)cc21` [Compound 179, 2-((4-(2-Chloro-3-((4-cyano-2-fluorobenzyl)oxy)phenyl)piperidin-1-yl)methyl)-4-(difluoromethoxy)-1-methyl-1H-benzo[d]imidazole-6-carboxylic acid] were > 1000 nM and 25 to 50%.
For the compound `COCCOCCOCCOCCOCCOc1cc(C(=O)O)cc2c1nc(CN1CCC(c3cccc4c3O[C@](C)(c3ccc(Cl)cn3)O4)CC1)n2Cc1cncs1` [Compound 5, (R)-4-((2,5,8,11,14-pentaoxahexadecan-16-yl)oxy)-2-((4-(2-(5-chloropyridin-2-yl)-2-methylbenzo[d][1,3]dioxol-4-yl)piperidin-1-yl)methyl)-1-(thiazol-5-ylmethyl)-1H-benzo[d]imidazole-6-carboxylic acid], the EC50 was > 1000 nM and the maximal response (Emax) is < 25%.
The like results for `CCOc1cc(C(=O)O)cc2c1nc(CN1CCC(Oc3cccc(COc4ccc(C#N)cc4F)n3)CC1)n2C` [Compound 290, 2-((4-((6-((4-Cyano-2-fluorophenoxy)methyl)pyridin-2-yl)oxy)piperidin-1-yl)methyl)-4-ethoxy-1-methyl-1H-benzo[d]imidazole-6-carboxylic acid] were, in that order, < 10 nM and > 85%.
Taken in the same sequence, the figures for `COc1cc(Cl)ccc1COc1cccc(C2CCN(Cc3nc4c(OC)cc(C(=O)O)cc4n3C)CC2)n1` [Compound 348, 2-((4-(6-((4-Chloro-2-methoxybenzyl)oxy)pyridin-2-yl)piperidin-1-yl)methyl)-4-methoxy-1-methyl-1H-benzo[d]imidazole-6-carboxylic acid] were < 10 nM and > 85%.
For `Cn1c(CN2CCC(c3cccc(N4CCc5cc(C#N)cc(F)c5C4)n3)CC2)nc2c(OC(F)F)cc(C(=O)O)cc21` [Compound 151, 2-((4-(6-(6-Cyano-8-fluoro-3,4-dihydroisoquinolin-2(1H)-yl)pyridin-2-yl)piperidin-1-yl)methyl)-4-(difluoromethoxy)-1-methyl-1H-benzo[d]imidazole-6-carboxylic acid], the 50% effective concentration (EC50) is 100 to 1000 nM and the Emax is > 85%.
For `COc1cc(C(=O)O)cc2c1nc([C@@H](C)N1CCC(c3cccc4c3O[C@@](C)(c3ccc(Cl)cn3)O4)CC1)n2C` [Compound 97, 2-((R)-1-(4-((S)-2-(5-chloropyridin-2-yl)-2-methylbenzo[d][1,3]dioxol-4-yl)piperidin-1-yl)ethyl)-4-methoxy-1-methyl-1H-benzo[d]imidazole-6-carboxylic acid], the EC50 is > 1000 nM and the Emax is > 85%.
Taken in the same sequence, the figures for `Cn1c(CN2CCC(c3cccc(OCc4ccc(Cl)cc4F)n3)CC2)nc2c(OC(F)F)cc(-c3noc(=O)[nH]3)cc21` [Compound 236, 3-(2-((4-(6-((4-Chloro-2-fluorobenzyl)oxy)pyridin-2-yl)piperidin-1-yl)methyl)-4-(difluoromethoxy)-1-methyl-1H-benzo[d]imidazol-6-yl)-1,2,4-oxadiazol-5 (4H)-one] were 100 to 1000 nM and 50 to 85%.
The like results for `COc1cc(C(=O)O)cc2c1nc([C@H](C)N1CCC(c3cccc(OCc4ccc(C#N)cc4F)n3)CC1)n2C` [Compound 102, (S)-2-(1-(4-(6-((4-Cyano-2-fluorobenzyl)oxy)pyridin-2-yl)piperidin-1-yl)ethyl)-4-methoxy-1-methyl-1H-benzo[d]imidazole-6-carboxylic acid] were, in that order, 10 to 100 nM and > 85%.
Taken in the same sequence, the figures for `Cn1c(CN2CCC(c3c(F)cccc3OCc3ccc(C#N)cc3F)CC2)nc2c(OC(F)F)cc(C(=O)O)cc21` [Compound 146, 2-((4-(2-((4-Cyano-2-fluorobenzyl)oxy)-6-fluorophenyl)piperidin-1-yl)methyl)-4-(difluoromethoxy)-1-methyl-1H-benzo[d]imidazole-6-carboxylic acid] were > 1000 nM and 50 to 85%.
With `Cc1ccc(COc2c(F)cccc2C2CCN(Cc3nc4c(OC(F)F)cc(C(=O)O)cc4n3C)CC2)c(F)c1` [Compound 139, 4-(Difluoromethoxy)-2-((4-(3-fluoro-2-((2-fluoro-4-methylbenzyl)oxy)phenyl)piperidin-1-yl)methyl)-1-methyl-1H-benzo[d]imidazole-6-carboxylic acid], the 50% effective concentration (EC50) was in the range of 10 to 100 nM and the maximal response (Emax) was > 85%.
